The target in test [1] is T1, human transferrin receptor (hTfR) (Homo sapiens, UniProt P02786). The test can be described thus: SPR measurement under pH 6.0 conditions (Biacore T200, NTA chip, immobilized hTfR). The format is binding. To be noted: read-out: hTfR SPR pH6.0 KD. (In general: Surface plasmon resonance follows binding to a sensor surface in real time, without labels.)
The target in test [2] is T1, human transferrin receptor (hTfR). The test can be described thus: SPR measurement under pH 7.4 conditions (Biacore T200, CM3 chip, hTfR captured by His Tag antibody). The format is binding. Conditions: read-out: hTfR SPR pH7.4 KD.
[3] abbreviates: SPR, pH 6.0, peptide with the linker named in the table.
Setting [4] is: SPR, pH 7.4, peptide with the linker named in the table.

Bridge positions count the residues as written; N and C are the ends. Square brackets hold non-standard residues; d marks the D form. Peptide text beside a SMILES is read from it. * marks the point of attachment. Trp(1-CH2COOH) = N[C@@H](Cc1cn(CC(=O)O)c2ccccc12)C(=O)O; CH2CON(CH2CH2)2NCH2COOH = O=C(O)CN1CCN(C(=O)C*)CC1; NMePhe(4-COOH) = CN[C@@H](Cc1ccc(C(=O)O)cc1)C(=O)O; Ala(2-NH2-4-pyridyl) = Nc1cc(C[C@H](N)C(=O)O)ccn1; Nle(6-morpholino) = N[C@@H](CCCCN1CCOCC1)C(=O)O; Phe(3-COOH) = N[C@@H](Cc1cccc(C(=O)O)c1)C(=O)O; Trp(7-aza) = N[C@@H](Cc1c[nH]c2ncccc12)C(=O)O; NH(CH2CH2O)8Me = COCCOCCOCCOCCOCCOCCOCCOCCN*; NMePhe(3-Cl) = CN[C@@H](Cc1cccc(Cl)c1)C(=O)O; 3Pal(6-NH2) = Nc1ccc(C[C@H](N)C(=O)O)cn1; NMeW = CN[C@@H](Cc1c[nH]c2ccccc12)C(=O)O; Lys(N3) = [N-]=[N+]=NCCCC[C@H](N)C(=O)O; Tyr(3-Me) = Cc1cc(C[C@H](N)C(=O)O)ccc1O; NMeY = CN[C@@H](Cc1ccc(O)cc1)C(=O)O; Nva(3-Et) = CCC(CC)[C@H](N)C(=O)O; NMeF = CN[C@@H](Cc1ccccc1)C(=O)O; 4Pal = N[C@@H](Cc1ccncc1)C(=O)O; PEG4 = NCCOCCOCCOCCOCCC(=O)O; Carboxymethyl = O=C(O)C*

T1 sequence (P02786 whole entry): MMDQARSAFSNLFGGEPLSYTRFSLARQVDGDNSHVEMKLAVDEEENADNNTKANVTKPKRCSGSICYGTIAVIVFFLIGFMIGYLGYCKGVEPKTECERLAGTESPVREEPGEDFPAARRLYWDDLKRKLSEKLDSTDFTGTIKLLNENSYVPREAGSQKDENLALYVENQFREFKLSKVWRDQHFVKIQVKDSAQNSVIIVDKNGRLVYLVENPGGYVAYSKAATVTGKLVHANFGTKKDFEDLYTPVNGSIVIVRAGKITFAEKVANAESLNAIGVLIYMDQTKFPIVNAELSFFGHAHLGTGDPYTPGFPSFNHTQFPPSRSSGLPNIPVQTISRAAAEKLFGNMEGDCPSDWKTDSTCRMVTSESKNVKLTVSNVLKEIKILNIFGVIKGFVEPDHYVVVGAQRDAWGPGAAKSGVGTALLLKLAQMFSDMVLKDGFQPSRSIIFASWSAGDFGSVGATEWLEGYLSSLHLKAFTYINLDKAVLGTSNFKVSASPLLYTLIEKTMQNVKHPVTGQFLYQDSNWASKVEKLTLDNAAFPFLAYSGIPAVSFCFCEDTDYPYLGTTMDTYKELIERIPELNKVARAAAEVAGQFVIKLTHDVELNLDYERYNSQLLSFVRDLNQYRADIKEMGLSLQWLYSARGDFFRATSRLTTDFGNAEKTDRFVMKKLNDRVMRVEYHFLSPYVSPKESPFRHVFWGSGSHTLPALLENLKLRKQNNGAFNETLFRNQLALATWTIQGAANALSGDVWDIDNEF

Broadly, the Kd is the free concentration of one partner at which half of the binding sites on the other are occupied at equilibrium, for simple one-to-one binding. Consider `CCC(CC)[C@@H]1NC(=O)[C@H](Cc2ccc(OCC(=O)N3CCN(CC(=O)O)CC3)cc2)NC(=O)[C@H](Cc2ccc(N)nc2)NC(=O)[C@H](CC(N)=O)NC(=O)[C@H](Cc2cn(CC(=O)O)c3ccccc23)NC(=O)[C@H](C(C)C)NC(=O)[C@H](Cc2cccc(Cl)c2)N(C)C(=O)[C@H](C(C)C)NC(=O)[C@H](C)NC(=O)CSC[C@@H](C(=O)NCCOCCOCCOCCOCCC(N)=O)NC(=O)[C@H](Cc2ccc(O)cc2)N(C)C(=O)[C@H](Cc2cccc(C(=O)O)c2)NC(=O)[C@H](CCCCN2CCOCC2)NC(=O)[C@H](CCC(N)=O)NC(=O)[C@H]([C@@H](C)CC)NC1=O` [compound 52] ({CH2CO}-AV[NMePhe(3-Cl)]V[Trp(1-CH2COOH)]N[3Pal(6-NH2)]Y(CH2CON(CH2CH2)2NCH2COOH)[Nva(3-Et)]IQ[Nle(6-morpholino)][Phe(3-COOH)][NMeY]C[PEG4]-NH2; thioether N-15), for which the Kd in test [1] (pH 6.0, single-cycle kinetics) was 626 nM; in test [2] (pH 7.4, single-cycle kinetics), 5820 nM.
With `CC[C@H](C)[C@@H]1NC(=O)[C@H](Cc2ccc(OC)cc2)NC(=O)[C@H](Cc2ccc(N)nc2)NC(=O)[C@H](CC(N)=O)NC(=O)[C@H](Cc2c[nH]c3ccccc23)N(C)C(=O)[C@H](C(C)C)NC(=O)[C@H](Cc2cccc(Cl)c2)N(C)C(=O)[C@H](C(C)C)NC(=O)[C@H](C)NC(=O)CSC[C@@H](C(=O)NCCOCCOCCOCCOCCC(N)=O)NC(=O)[C@H](Cc2ccc(O)cc2)N(C)C(=O)[C@H](Cc2ccncc2)NC(=O)[C@H](CCCNC(=N)N)NC(=O)[C@H](CCCCN)NC(=O)[C@H]([C@@H](C)CC)NC1=O` [compound 58] ({CH2CO}-AV[NMePhe(3-Cl)]V[NMeW]N[3Pal(6-NH2)]Y(Me)IIKR[4Pal][NMeY]C[PEG4]-NH2; thioether N-15), the Kd in test [1] (pH 6.0, single-cycle kinetics) is 5.39 nM; in test [2] (pH 7.4, single-cycle kinetics), 1.34 nM.
As to `CCC(CC)[C@@H]1NC(=O)[C@H](Cc2ccc(OCC(=O)O)cc2)NC(=O)[C@H](Cc2ccc(O)cc2)NC(=O)[C@H](CC(N)=O)NC(=O)[C@H](Cc2c[nH]c3ncccc23)NC(=O)[C@H](C(C)C)NC(=O)[C@H](Cc2cccc(Cl)c2)N(C)C(=O)[C@H](C(C)C)NC(=O)[C@H](C)NC(=O)CSC[C@@H](C(=O)NCCOCCOCCOCCOCCC(N)=O)NC(=O)[C@H](Cc2ccc(O)cc2)N(C)C(=O)[C@H](Cc2cccc(C(=O)O)c2)NC(=O)[C@H](CCCNC(=N)N)NC(=O)[C@H](CCC(=O)NCCOCCOCCOCCOCCOCCOCCOCCOC)NC(=O)[C@H]([C@@H](C)CC)NC1=O` [compound 106] ({CH2CO}-AV[NMePhe(3-Cl)]V[Trp(7-aza)]NYY(Carboxymethyl)[Nva(3-Et)]IE(NH(CH2CH2O)8Me)R[Phe(3-COOH)][NMeY]C[PEG4]-NH2; thioether N-15), the results for the Kd in test [1] (setting [3]) and in test [2] (setting [4]) were 90.1 nM and 26 nM, respectively.
Regarding `CC[C@H](C)[C@@H]1NC(=O)[C@H](Cc2ccc(OCC(=O)N3CCN(CC(=O)O)CC3)cc2)NC(=O)[C@H](Cc2ccc(O)cc2)NC(=O)[C@H](CC(N)=O)NC(=O)[C@H](Cc2c[nH]c3ncccc23)NC(=O)[C@H](C(C)C)NC(=O)[C@H](Cc2cccc(Cl)c2)N(C)C(=O)[C@H](C(C)C)NC(=O)[C@H](C)NC(=O)CSC[C@@H](C(=O)NCCOCCOCCOCCOCCC(N)=O)NC(=O)[C@H](Cc2ccc(O)cc2)N(C)C(=O)[C@H](Cc2cccc(C(=O)O)c2)NC(=O)[C@H](CCCNC(=N)N)NC(=O)[C@H](CCC(=O)NCCOCCOCCOCCOCCOCCOCCOCCOC)NC(=O)[C@H]([C@@H](C)CC)NC1=O` [compound 42], the Kd was determined as 34.4 nM in test [1] (pH 6.0, single-cycle kinetics) and 5.11 nM in test [2] (pH 7.4, single-cycle kinetics).
With `CC[C@H](C)[C@@H]1NC(=O)[C@H](Cc2ccc(OCC(=O)O)cc2)NC(=O)[C@H](Cc2ccc(O)cc2)NC(=O)[C@H](CC(N)=O)NC(=O)[C@H](Cc2c[nH]c3ncccc23)NC(=O)[C@H](C(C)C)NC(=O)[C@H](Cc2cccc(Cl)c2)N(C)C(=O)[C@H](C(C)C)NC(=O)[C@H](C)NC(=O)CSC[C@@H](C(=O)NCCOCCOCCOCCOCCC(N)=O)NC(=O)[C@H](Cc2ccc(O)cc2)N(C)C(=O)[C@H](Cc2cccc(C(=O)NCCOCCOCCOCCOCCOCCOCCOCCOCCC(=O)O)c2)NC(=O)[C@H](CCCNC(=N)N)NC(=O)[C@H](CCC(N)=O)NC(=O)[C@H]([C@@H](C)CC)NC1=O` [compound 140], the Kd in test [1] (setting [3]) is 22.1 nM; in test [2] (setting [4]), 5.63 nM.
For the compound `CCC(CC)[C@@H]1NC(=O)[C@H](Cc2ccc(O)cc2)NC(=O)[C@H](Cc2ccc(N)nc2)NC(=O)[C@H](CC(N)=O)NC(=O)[C@H](Cc2c[nH]c3ccccc23)N(C)C(=O)[C@H](C(C)C)NC(=O)[C@H](Cc2ccccc2)N(C)C(=O)[C@H](C(C)C)NC(=O)[C@H](C)NC(=O)CSC[C@@H](C(=O)NCC(=O)N[C@H](CCC(=O)O)C(=O)N[C@H](CCC(=O)O)C(=O)N[C@H](CCC(=O)O)C(=O)N[C@H](CO)C(=O)N[C@H](CO)C(=O)N[C@@H](CCCCN=[N+]=[N-])C(N)=O)NC(=O)[C@H](Cc2ccc(C(=O)O)cc2)N(C)C(=O)[C@H](Cc2ccc(O)cc2)NC(=O)[C@H](CCCNC(=N)N)NC(=O)[C@H](CCCCN)NC(=O)[C@H]([C@@H](C)CC)NC1=O` [compound 188] ({CH2CO}-AV[NMeF]V[NMeW]N[3Pal(6-NH2)]Y[Nva(3-Et)]IKRY[NMePhe(4-COOH)]CG[dE][dE][dE][dS][dS][Lys(N3)]-NH2; thioether N-15), the Kd in test [1] (SPR, pH 6.0, Table 1-3-2-2) came out at 175 nM; in test [2] (SPR, pH 7.4, Table 1-3-2-2), 34 nM.
Consider `CCC(CC)[C@@H]1NC(=O)[C@H](Cc2ccc(OCC(=O)O)cc2)NC(=O)[C@H](Cc2ccc(O)cc2)NC(=O)[C@H](CC(N)=O)NC(=O)[C@H](Cc2cn(CC(=O)O)c3ccccc23)NC(=O)[C@H](C(C)C)NC(=O)[C@H](Cc2cccc(Cl)c2)N(C)C(=O)[C@H](C(C)C)NC(=O)[C@H](C)NC(=O)CSC[C@@H](C(=O)NCCOCCOCCOCCOCCC(N)=O)NC(=O)[C@H](Cc2ccc(O)cc2)N(C)C(=O)[C@H](Cc2ccc(N)nc2)NC(=O)[C@H](CCCNC(=N)N)NC(=O)[C@H](CCC(N)=O)NC(=O)[C@H]([C@@H](C)CC)NC1=O` [compound 102] ({CH2CO}-AV[NMePhe(3-Cl)]V[Trp(1-CH2COOH)]NYY(Carboxymethyl)[Nva(3-Et)]IQR[3Pal(6-NH2)][NMeY]C[PEG4]-NH2; thioether N-15), for which the Kd in test [1] (setting [3]) is 76.4 nM; in test [2] (setting [4]) it was 9.81 nM.
For `CC[C@H](C)[C@@H]1NC(=O)[C@H](Cc2ccc(OC)cc2)NC(=O)[C@H](Cc2ccc(O)cc2)NC(=O)[C@H](CC(N)=O)NC(=O)[C@H](Cc2c[nH]c3ncccc23)NC(=O)[C@H](C(C)C)NC(=O)[C@H](Cc2cccc(Cl)c2)N(C)C(=O)[C@H](C(C)C)NC(=O)[C@H](C)NC(=O)CSC[C@@H](C(=O)NCCOCCOCCOCCOCCC(N)=O)NC(=O)[C@H](Cc2ccc(O)cc2)N(C)C(=O)[C@H](Cc2cccc(C(=O)NCCOCCOCCOCCOCCOCCOCCOCCOCCC(=O)O)c2)NC(=O)[C@H](CCCNC(=N)N)NC(=O)[C@H](CCC(=O)NCCOCCOCCOCCOCCOCCOCCOCCOCCC(=O)O)NC(=O)[C@H]([C@@H](C)CC)NC1=O` [compound 142] the same measures were 17.8 nM and 2.15 nM.
For `CCC(CC)[C@@H]1NC(=O)[C@H](Cc2ccc(OCC(=O)O)cc2)NC(=O)[C@H](Cc2ccc(O)cc2)NC(=O)[C@H](CC(N)=O)NC(=O)[C@H](Cc2cn(CC(=O)O)c3ccccc23)NC(=O)[C@H](C(C)C)NC(=O)[C@H](Cc2cccc(Cl)c2)N(C)C(=O)[C@H](C(C)C)NC(=O)[C@H](C)NC(=O)CSC[C@@H](C(=O)NCCOCCOCCOCCOCCC(N)=O)NC(=O)[C@H](Cc2ccc(O)cc2)N(C)C(=O)[C@H](Cc2ccnc(N)c2)NC(=O)[C@H](CCCNC(=N)N)NC(=O)[C@H](CCC(N)=O)NC(=O)[C@H]([C@@H](C)CC)NC1=O` [compound 104] ({CH2CO}-AV[NMePhe(3-Cl)]V[Trp(1-CH2COOH)]NYY(Carboxymethyl)[Nva(3-Et)]IQR[Ala(2-NH2-4-pyridyl)][NMeY]C[PEG4]-NH2; thioether N-15) the same measures were 78.2 nM and 10.7 nM.
For `CC[C@H](C)[C@@H]1NC(=O)[C@H](Cc2ccc(OCC(=O)N3CCN(CC(=O)O)CC3)cc2)NC(=O)[C@H](Cc2ccc(O)cc2)NC(=O)[C@H](CC(N)=O)NC(=O)[C@H](Cc2cn(CC(=O)O)c3ccccc23)NC(=O)[C@H](C(C)C)NC(=O)[C@H](Cc2cccc(Cl)c2)N(C)C(=O)[C@H](C(C)C)NC(=O)[C@H](C)NC(=O)CSC[C@@H](C(=O)NCCOCCOCCOCCOCCC(N)=O)NC(=O)[C@H](Cc2ccc(O)cc2)N(C)C(=O)[C@H](Cc2ccncc2)NC(=O)[C@H](CCCCN2CCOCC2)NC(=O)[C@H](CCC(N)=O)NC(=O)[C@H]([C@@H](C)CC)NC1=O` [compound 25], the Kd in test [1] (pH 6.0, single-cycle kinetics) is 57.9 nM; in test [2] (pH 7.4, single-cycle kinetics), 3.35 nM.
With `CCC(CC)[C@@H]1NC(=O)[C@H](Cc2ccc(OCC(=O)O)cc2)NC(=O)[C@H](Cc2ccc(O)cc2)NC(=O)[C@H](CC(N)=O)NC(=O)[C@H](Cc2cn(CC(=O)O)c3ccccc23)NC(=O)[C@H](C(C)C)NC(=O)[C@H](Cc2cccc(Cl)c2)N(C)C(=O)[C@H](C(C)C)NC(=O)[C@H](C)NC(=O)CSC[C@@H](C(=O)NCCOCCOCCOCCOCCC(N)=O)NC(=O)[C@H](Cc2ccc(O)cc2)N(C)C(=O)[C@H](Cc2ccc(O)c(C)c2)NC(=O)[C@H](CCCNC(=N)N)NC(=O)[C@H](CCC(N)=O)NC(=O)[C@H]([C@@H](C)CC)NC1=O` [compound 99] ({CH2CO}-AV[NMePhe(3-Cl)]V[Trp(1-CH2COOH)]NYY(Carboxymethyl)[Nva(3-Et)]IQR[Tyr(3-Me)][NMeY]C[PEG4]-NH2; thioether N-15), the dissociation constant Kd in test [1] (setting [3]) was 56.2 nM; in test [2] (setting [4]), 9.08 nM.

The record behind these values is patent publication EP4667483A1, “HUMAN TRANSFERRIN RECEPTOR-BINDING PEPTIDE” (JCR Pharmaceuticals Co., Ltd., priority 2023, dated 2024).
